{
  "source": "paper PMC6721044",
  "about": "“Ratiometric BRET Measurements of ATP with a Genetically-Encoded Luminescent Sensor” (Sensors (Basel, Switzerland), 2019)",
  "biological_target": "T1, ARSeNL (mScarlet-ε-NanoLuc); ε subunit of the ATP synthase from Bacillus subtilis (Bacillus subtilis, UniProt P37812)",
  "T1 construct": "gene atpC; isolated ε subunit (from ATeam1.03) flanked by N-terminal mScarlet and C-terminal NanoLuc as reporters",
  "T1 sequence (P37812 whole entry)": "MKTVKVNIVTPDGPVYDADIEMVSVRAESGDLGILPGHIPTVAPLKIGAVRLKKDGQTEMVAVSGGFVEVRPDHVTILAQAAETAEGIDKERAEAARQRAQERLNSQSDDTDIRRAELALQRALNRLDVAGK",
  "experiment": "BRET ratio (mScarlet/NanoLuc) dose-response, microplate reader, Hill fit",
  "assay_type": "binding",
  "details": "read-out: KD (apparent)",
  "data": [
    {"smiles": "Nc1ncnc2c1ncn2[C@@H]1O[C@H](COP(=O)(O)OP(=O)(O)OP(=O)(O)O)[C@@H](O)[C@H]1O", "note": "[ATP]", "values": [
      {"measurement": "Kd", "result": "1100 ± 100", "unit": "µM"}
    ]}
  ]
}
